Results: ChEMBL document CHEMBL1201862, “PubChem BioAssay data set” (2004)
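Five concentrations, 48 hours, 96-well plates. GI50 marks 50% less growth.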 Activity calls are given as the source filed them. Cut-off read from the data, not from the text of the source: active = GI50 up to about 1.1 µM and inactive = higher.

Tests used:
Test in all cases: growth of human tumour cells (NCI), 48 h
786-0 = test system: 786-0
A498 = test system: A498
CAKI-1 = test system: CAKI-1
CCRF-CEM = test system: CCRF-CEM
KM12 = test system: KM12
MOLT-4 = test system: MOLT-4
NCI-H226 = test system: NCI-H226
NCI/ADR-RES = test system: NCI/ADR-RES
OVCAR-5 = test system: OVCAR-5
SF-268 = test system: SF-268
SK-MEL-28 = test system: SK-MEL-28
SK-OV-3 = test system: SK-OV-3
SN12C = test system: SN12C
UACC-257 = test system: UACC-257
UO-31 = test system: UO-31
HL-60 = test system: HL-60
HOP-92 = test system: HOP-92
TK-10 = test system: TK-10
SR = test system: SR

Measured: GI50

c1ccc2c(c1)ccc1nc(-c3ccc4c(c3)OCO4)c3c(c12)CCCC3
inactive: 786-0 26.1 µM | A498 14.6 µM | CAKI-1 45.4 µM | CCRF-CEM 25.9 µM | KM12 11.3 µM | MOLT-4 8.26 µM | NCI-H226 73.1 µM | NCI/ADR-RES 17.7 µM | OVCAR-5 93.5 µM | SF-268 12.2 µM | SK-MEL-28 30.2 µM | SK-OV-3 43.5 µM | SN12C 26.1 µM | UACC-257 30.1 µM | UO-31 20.9 µM

COc1cc2c(cc1C)NC(=O)/C2=C/c1cccnc1
inactive: 786-0 16 µM | A498 10.8 µM | CAKI-1 10.1 µM | CCRF-CEM 7.01 µM | HL-60 4.04 µM | HOP-92 15.3 µM | KM12 8.32 µM | MOLT-4 1.23 µM | NCI/ADR-RES 12.1 µM | OVCAR-5 13.6 µM | SF-268 15.6 µM | SK-MEL-28 45.9 µM | SK-OV-3 7.03 µM | TK-10 11.9 µM

Fc1ccc(C2NC(=S)NC3=C2CCOc2c3ccc3ccccc23)cc1 (stereo not drawn)
inactive: 786-0 33 µM | A498 18.9 µM | CAKI-1 16.6 µM | CCRF-CEM 54 µM | HL-60 19 µM | HOP-92 > 100 µM | KM12 21.8 µM | MOLT-4 19.9 µM | NCI/ADR-RES 18.9 µM | OVCAR-5 94.6 µM | SF-268 45.1 µM | SK-OV-3 82.4 µM | SN12C 94.8 µM | TK-10 44.9 µM | UACC-257 53.8 µM | UO-31 26.7 µM

CSc1nc(C)cc(=O)n1C1OC(COC(C)=O)C(OC(C)=O)C(OC(C)=O)C1OC(C)=O (stereo not drawn)
inactive: 786-0 > 100 µM | A498 > 100 µM | CCRF-CEM > 100 µM | HL-60 > 100 µM | KM12 > 100 µM | MOLT-4 > 100 µM | NCI-H226 > 100 µM | OVCAR-5 > 100 µM | SF-268 > 100 µM | SK-MEL-28 > 100 µM | SK-OV-3 > 100 µM | SN12C > 100 µM | SR > 100 µM | TK-10 > 100 µM | UACC-257 > 100 µM | UO-31 > 100 µM

COc1ccc(C[P+]2(c3ccccc3)CCCCC2)cc1.O=[N+]([O-])c1ccc(C[P+]2(c3ccccc3)CCCCC2)cc1.[O-][Cl+3]([O-])([O-])[O-].[O-][Cl+3]([O-])([O-])[O-]
inactive: 786-0 > 100 µM | A498 > 100 µM | CAKI-1 > 100 µM | CCRF-CEM > 100 µM | HL-60 20.6 µM | KM12 75.5 µM | MOLT-4 63.8 µM | OVCAR-5 > 100 µM | SF-268 > 100 µM | SK-MEL-28 42.2 µM | SK-OV-3 > 100 µM | SN12C 70 µM | TK-10 > 100 µM | UACC-257 29.6 µM | UO-31 > 100 µM

CCOc1ccc(/C=C2\N=C(c3ccc([N+](=O)[O-])cc3)OC2=O)cc1
inactive: 786-0 > 100 µM | A498 > 100 µM | CAKI-1 > 100 µM | CCRF-CEM > 100 µM | HL-60 > 100 µM | HOP-92 > 100 µM | KM12 > 100 µM | MOLT-4 > 100 µM | NCI-H226 > 100 µM | OVCAR-5 > 100 µM | SF-268 > 100 µM | SK-MEL-28 > 100 µM | SK-OV-3 > 100 µM | SN12C > 100 µM | SR > 100 µM | TK-10 > 100 µM | UACC-257 > 100 µM

O=C1CCC(O)=C1O
inactive: 786-0 > 100 µM | A498 > 100 µM | CAKI-1 > 100 µM | CCRF-CEM > 100 µM | HL-60 > 100 µM | HOP-92 > 100 µM | KM12 > 100 µM | MOLT-4 > 100 µM | NCI-H226 > 100 µM | OVCAR-5 > 100 µM | SF-268 > 100 µM | SK-MEL-28 > 100 µM | SK-OV-3 > 100 µM | SN12C > 100 µM | TK-10 > 100 µM
